{"source": "patent US20230277508A1", "about": "“USE OF COMPOUND AS CYP2E1 INHIBITOR” (SHANGHAI LING XI BIOTECHNOLOGY DEVELOPMENT CO., LTD., priority 2020, published 2023)", "key": {"[1]": {"tested_on": "LPS-induced acute lung injury (ALI) in mice", "experiment": "LPS-induced mouse lung injury", "format": "in vivo, C57BL/6N mouse", "description": "(§1) Experimental method: A C57BL/6N mouse pulmonary fibrosis model was established through intratracheal instillation with 8 mg/kg LPS. An SMI0 intervention group was divided into a low-dose group and a high-dose group, which were intragastrically administered with the compound SMI0 respectively at 30 mg/kg and 90 mg/kg every day from three days before modeling until 6 h before the end of the modeling (control group, n=8; model group, n=8; and SMI0 compound high-dose group, n=8). At the end of the experiment, a body weight of mice in each group was recorded, blood was collected from the orbit, the mice were sacrificed, and lung tissues were collected and weighed. The left lungs were fixed in 4% formalin and subjected to HE staining.\nExperimental method: A neutrophil level in a mouse lung tissue was evaluated through immunohistochemistry (IHC) staining, and an immunostaining-positive area percentage was quantitatively evaluated by Image-Pro Plus software. RNA of a mouse lung tissue was extracted by a kit method, and expression levels of TNF-α and IL-1β in lung tissues of mice were determined by RT-PCR."}, "[2]": {"tested_on": "LPS-induced pulmonary fibrosis in mice", "experiment": "LPS-induced mouse pulmonary fibrosis model", "format": "in vivo, C57BL/6N mouse", "description": "as §1, with “before modeling to the end” for “before modeling until 6 h before the end”, “of the 28-d modeling (control” for “of the modeling (control”, “to HE and Masson staining, and the lung tissues were subjected to fibrosis grading and fibrosis and histological scoring to reflect a severity of pulmonary fibrosis.” for “to HE staining.”\nExperimental method: An ammonium molybdate method and a microplate method were used to treat a mouse lung tissue homogenate, and changes of oxidative stress indexes CAT and GSH in the lung tissue of mice in each group were detected. Expression levels of […] and α-SMA in the mouse lung tissue were evaluated through immunohistochemical staining, and a positive area percentage was counted by Image-Pro Plus software. Expression levels of the epithelial cell marker E-cadherin, the apoptosis-associated protein Bax, and the anti-apoptotic protein Bcl-2 were detected by WB."}, "[3]": {"tested_on": "GL261 cells / M2 microglial cells", "experiment": "GL261 cells co-cultivated with M2 microglial cells", "format": "cell-based, mouse", "details": "SMI0 50 μmol/L vs M2 microglial cell co-cultivation group", "description": "Experimental method: 10 1-2 d newborn C57BL/6 WT mice and 6 CYP2E1^−/− mice were taken, primary microglial cells and astrocytes were collected and inoculated into 6-well plates, and 24 h later, culture supernatants were taken and co-cultivated with glioma cells. Experimental groups: control group; M2 model group; high-concentration, medium-concentration, and low-concentration SMI0 (50 μmol/L, 12.5 μmol/L, and 3.1 μmol/L) groups; and CYP2E1 gene-knockout group. 24 h later, supernatants were discarded; and […] and IL-13 each were added at 20 ng/mL to induce the transformation of microglial cells into the M2 type in the M2 model group and the high-concentration, medium-concentration, and low-concentration SMI0 groups, and different concentrations of SMI0 (50 μmol/L, 12.5 μmol/L, and 3.1 μmol/L) were also added in the intervention groups. The proliferation of glioma cells was determined by a CCK8 method, and an apoptosis proportion was determined by an Annexin V-FITC-PI apoptosis staining kit."}, "[4]": {"tested_on": "HepG2 liver cancer cells / macrophage RAW264.7", "experiment": "HepG2 cells co-cultivated with RAW264.7 macrophage supernatant", "format": "cell-based", "details": "SMI0 intervention groups (especially 4 μmol/L) vs macrophage co-cultivation group, P<0.001", "description": "Experimental method: A supernatant of a murine macrophage RAW264.7 was collected to establish a co-cultivation system with the HepG2 liver cancer cell, thereby simulating a macrophage inflammatory microenvironment of liver cancer. In the SMI0 intervention groups, SMI0 was added at different concentrations (0 μmol/L, 0.16 μmol/L, 0.8 μmol/L, 4 μmol/L, 20 μmol/L, and 100 μmol/L) while interleukin was added for induction. Culture supernatants of the SMI0 intervention groups were collected to prepare conditional media. HepG2 liver cancer cells in a logarithmic growth phase were adopted. The proliferation activity of HepG2 was determined by a CCK8 method, a migration ability of HepG2 was determined by wound-healing assay, and an apoptosis ability of HepG2 was determined by FCM."}, "[5]": {"tested_on": "hyperlipidemia and aortic atherosclerotic plaques in ApoE-/- mice", "experiment": "ApoE-/- mouse hyperlipidemia model induced by a high-fat diet", "format": "in vivo", "details": "for High-density lipoprotein / Low-density lipoprotein / Total cholesterol / Triglyceride: serum, 16 weeks, n=8", "description": "Experimental method: ApoE^−/− mice were fed with a high-fat and high-cholesterol feed to construct an ApoE^−/− mouse hyperlipidemia model. An SMI0 intervention group was divided into a low-dose intervention group and a high-dose intervention group, which were administered with the compound SMI0 at 30 mg/kg and 150 mg/kg every day from the beginning of modeling to the end of the 16-week modeling. At the end of the experiment, blood was collected from the orbit, and the levels of blood lipid-associated indexes in the serum of each mouse were determined by an automatic biochemical analyzer (8 mice in each group)."}, "[6]": {"details": "RT-PCR, SMI0 high-dose group vs model group, P<0.05"}, "[7]": {"details": "SMI0 intervention group vs model group, P<0.01"}}, "note": "Marks after values point to notes of the source that are not given here."}
{"compound": "CC(=O)c1scnc1C", "note": "[SMI0]", "values": [{"measurement": "expression level of IL-1β in the lung tissue", "setting": "[1]; [6]", "result": "significantly reduced"}, {"measurement": "expression level of TNF-α in the lung tissue", "setting": "[1]; [6]", "result": "significantly reduced"}, {"measurement": "lung injury score", "setting": "[1]; SMI0 administration group vs model group", "result": "significant reduced"}, {"measurement": "MPO immunostaining-positive area percentage in lung tissue", "setting": "[1]; SMI0 high-dose group vs model group, P<0.05", "result": "significantly reduced"}, {"measurement": "lung index", "setting": "[1]; both SMI0 low-dose (30 mg/kg) and high-dose (90 mg/kg) groups, ig daily, vs model group, P<0.01", "result": "significantly reduced"}, {"measurement": "lung index", "setting": "[2]; SMI0 intervention group (30, 90 mg/kg ig daily, 28 d) vs model group", "result": "significantly reduced"}, {"measurement": "immunostaining-positive area percentage of TGF-β 1", "setting": "[2]; [7]", "result": "significantly reduced"}, {"measurement": "immunostaining-positive area percentage of α-SMA", "setting": "[2]; [7]", "result": "significantly reduced"}, {"measurement": "oxidative stress index CAT level in lung tissue", "setting": "[2]; [7]", "result": "significantly increased"}, {"measurement": "pathological inflammatory cell infiltration", "setting": "[2]; SMI0 intervention group, 28 d", "result": "no obvious pathological inflammatory cell infiltration"}, {"measurement": "Bcl-2 level", "setting": "[2]; WB, SMI0 intervention group vs model group, P<0.001", "result": "significantly increased"}, {"measurement": "Bax level", "setting": "[2]; WB, SMI0 intervention group vs model group, P<0.01", "result": "significantly reduced"}, {"measurement": "epithelial cell marker E-cadherin level", "setting": "[2]; WB, SMI0 intervention group vs model group, P<0.05", "result": "significantly increased"}, {"measurement": "apoptosis of GL261 cells", "setting": "[3]", "result": "promoted"}, {"measurement": "proliferation of GL261 cells", "setting": "[3]; P<0.001", "result": "significantly inhibited"}, {"measurement": "apoptosis ability of HepG2 liver cancer cells", "setting": "[4]", "result": "significantly enhanced"}, {"measurement": "migration ability of HepG2 liver cancer cells", "setting": "[4]", "result": "significantly weakened"}, {"measurement": "proliferation activity of HepG2 liver cancer cells", "setting": "[4]", "result": "significantly weakened"}, {"measurement": "total area of aortic root lesions (HE staining)", "setting": "[5]; SMI0 high-dose group 150 mg/kg vs model group, P<0.01", "result": "significantly reduced"}, {"measurement": "total area of aortic root lesions (oil red O staining)", "setting": "[5]; SMI0 high-dose group 150 mg/kg vs model group, P<0.05", "result": "significantly reduced"}, {"measurement": "High-density lipoprotein", "setting": "[5]; SMI0 30 mg/kg daily", "result": "2.37 ± 0.49", "unit": "mmol/L"}, {"measurement": "Low-density lipoprotein", "setting": "[5]; SMI0 30 mg/kg daily", "result": "17.94 ± 11.16", "unit": "mmol/L"}, {"measurement": "Total cholesterol", "setting": "[5]; SMI0 30 mg/kg daily", "result": "20.45 ± 10.77", "unit": "mmol/L"}, {"measurement": "Triglyceride", "setting": "[5]; SMI0 30 mg/kg daily", "result": "0.56 ± 0.04", "unit": "mmol/L"}, {"measurement": "High-density lipoprotein", "setting": "[5]; SMI0 150 mg/kg daily", "result": "3.68 ± 0.33*^@ mmol/L"}, {"measurement": "Low-density lipoprotein", "setting": "[5]; SMI0 150 mg/kg daily", "result": "1.50 ± 0.77^@ mmol/L"}, {"measurement": "Total cholesterol", "setting": "[5]; SMI0 150 mg/kg daily", "result": "5.35 ± 0.55^@ mmol/L"}, {"measurement": "Triglyceride", "setting": "[5]; SMI0 150 mg/kg daily", "result": "0.40 ± 0.10", "unit": "mmol/L"}]}
